Test systems include IGROV-1; OVCAR-8; Malme-3M; M14; OVCAR-3; A549; SW-620; SK-MEL-28; SF-539; LOX IMVI; NCI-H460; SF-295; MOLT-4; SK-MEL-5; U-251; A498; UACC-257; HOP-62; SNB-75; NCI-H23.
What all share (assay): NCI tumour cell line growth inhibition, 48 h

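Dose response: 5 concentrations. Exposure: 48 h. Format: 96-well plates. Endpoint: linear interpolation; highest concentration if not reached. At the GI50, growth is halved.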 Active and inactive are the calls of the source. No stated cut-off is given here; in the data, active = GI50 up to about 1.1 µM and inactive = higher. A value given as a limit tells only on which side of the number the result lay.

As to `Fc1c(F)c(F)c(CSc2nc3ccccc3[nH]2)c(F)c1F`, the GI50 in the test on IGROV-1, with OVCAR-8, in the test on Malme-3M, in the test with M14, in the test on OVCAR-3 and in the test with A549 was > 100 µM (inactive) each time. The GI50 with SW-620, in the test with SK-MEL-28, in the test with SF-539, with LOX IMVI, in the test on NCI-H460 and in the test on SF-295 was > 100 µM (inactive) throughout. Further, the GI50 in the test on MOLT-4, in the test with SK-MEL-5, with U-251, in the test on A498, with UACC-257 and in the test with HOP-62 was > 100 µM (inactive) each time. Further, the GI50 in the test on SNB-75 and with NCI-H23 was > 100 µM (inactive) throughout.
In the case of `N#CC(=N)c1ncn(-c2ccccc2N)c1N`, the GI50 in the test with IGROV-1, with OVCAR-8, in the test with Malme-3M, in the test with M14, in the test on OVCAR-3 and in the test on A549 was > 100 µM (inactive) throughout. Besides, the GI50 with SW-620, in the test with SK-MEL-28, in the test with SF-539, with LOX IMVI, in the test on NCI-H460 and in the test on SF-295 was > 100 µM (inactive) in each case. The GI50 in the test on MOLT-4, with SK-MEL-5, in the test on U-251, in the test with A498, in the test on UACC-257 and with HOP-62 was > 100 µM (inactive) in each case. Besides, the GI50 with SNB-75 and in the test on NCI-H23 was > 100 µM (inactive) throughout.
In the case of `CC1(C)C2CCC3(OCCO3)C1C(O)C2` (stereo not given), the GI50 in the test on IGROV-1, in the test with OVCAR-8, in the test on Malme-3M, with M14, in the test on OVCAR-3 and in the test with A549 was > 100 µM (inactive) throughout. Besides, the GI50 in the test on SW-620, with SK-MEL-28, with SF-539, in the test with LOX IMVI, in the test on NCI-H460 and with SF-295 was > 100 µM (inactive) in each case. The GI50 in the test with MOLT-4, with SK-MEL-5, in the test on U-251, in the test on A498, with UACC-257 and in the test on HOP-62 was > 100 µM (inactive) each time. For the same compound, the GI50 in the test with SNB-75 and in the test with NCI-H23 was > 100 µM (inactive) throughout.
For the compound `CCOC(=O)CC(NC(=O)c1ccc(/N=N/N(C)C)cc1)C(=O)OCC` (stereo not given), the GI50 in the test on IGROV-1, in the test on OVCAR-8, in the test on Malme-3M, in the test with M14, in the test on OVCAR-3 and in the test on A549 was > 100 µM (inactive) each time. Also, the GI50 in the test on SW-620, in the test with SK-MEL-28, in the test with SF-539, in the test with LOX IMVI, in the test with NCI-H460 and in the test on SF-295 was > 100 µM (inactive) throughout. For the same compound, the GI50 in the test with MOLT-4, in the test with SK-MEL-5, in the test with U-251, in the test on A498, in the test with UACC-257 and with HOP-62 was > 100 µM (inactive) throughout. Moreover, the figures for the GI50 in the test on SNB-75 and in the test with NCI-H23 were 91.8 µM (inactive) and > 100 µM (inactive), respectively.
For the compound `CSC1NC(c2ccccc2)=C(C#N)C(=O)N1C1OCC(OC(C)=O)C(OC(C)=O)C1OC(C)=O` (stereo not given), the GI50 with IGROV-1, in the test with OVCAR-8, in the test with Malme-3M, with M14, in the test on OVCAR-3 and in the test on A549 was > 100 µM (inactive) each time. In addition, the GI50 with SW-620, in the test on SK-MEL-28, in the test on SF-539, with LOX IMVI, with NCI-H460 and with SF-295 was > 100 µM (inactive) each time. Moreover, the GI50 with MOLT-4, in the test with SK-MEL-5, in the test on U-251, in the test on A498, in the test on UACC-257 and with HOP-62 was > 100 µM (inactive) throughout. The GI50 in the test with SNB-75 and in the test with NCI-H23 was > 100 µM (inactive) each time.
Regarding `O=C(O)CCC(NC(=O)c1ccc(Nc2nc3cc(C(F)(F)F)ccc3nc2C(=O)O)cc1)C(=O)O` (stereo not given), the GI50 in the test with IGROV-1, with OVCAR-8, in the test with Malme-3M, with M14, in the test on OVCAR-3 and with A549 was > 100 µM (inactive) each time. Besides, the GI50 in the test on SW-620, in the test with SK-MEL-28, with SF-539, in the test with LOX IMVI, with NCI-H460 and with SF-295 was > 100 µM (inactive) in each case. For the same compound, the GI50 with MOLT-4 is > 100 µM (inactive); with SK-MEL-5 it was 79.8 µM (inactive); with U-251, > 100 µM (inactive); in the test on A498 it was > 100 µM (inactive); in the test with UACC-257, > 100 µM (inactive); in the test with HOP-62, > 100 µM (inactive). In addition, the GI50 with SNB-75 and with NCI-H23 was > 100 µM (inactive) in each case.
Turning to `COc1nc(N)nc2nc[nH]c12`, the GI50 with IGROV-1 is 239 µM (inactive); with OVCAR-8 it was > 500 µM (inactive); in the test on Malme-3M, 290 µM (inactive); in the test with M14 it was 478 µM (inactive); with OVCAR-3, 497 µM (inactive); with A549, > 500 µM (inactive). Moreover, the GI50 in the test with SW-620 was > 500 µM (inactive); with SK-MEL-28 it was > 419 µM (inactive); in the test with SF-539 it was 495 µM (inactive); with LOX IMVI, 381 µM (inactive); with NCI-H460, 430 µM (inactive); with SF-295, > 500 µM (inactive). Also, the GI50 in the test on MOLT-4 was 474 µM (inactive); in the test with SK-MEL-5, > 500 µM (inactive); with U-251 it was 488 µM (inactive); in the test with A498 it was 228 µM (inactive); in the test on UACC-257, 486 µM (inactive); in the test on HOP-62, 172 µM (inactive). In addition, the results for the GI50 in the test with SNB-75 and in the test with NCI-H23 were 208 µM (inactive) and > 500 µM (inactive), respectively.
Take `C=CCNC1=C2C[C@@H](C)C[C@H](OC)[C@H](O)[C@@H](C)/C=C(\C)[C@H](OC(N)=O)[C@@H](OC)/C=C\C=C(/C)C(=O)NC(=CC1=O)C2=O` [TANESPIMYCIN]: the GI50 with IGROV-1 was 0.0331 µM (active); in the test with OVCAR-8 it was 0.0607 µM (active); in the test on Malme-3M, 0.0619 µM (active); with M14, 0.0214 µM (active); in the test with OVCAR-3 it was 0.115 µM (active); in the test with A549 it was 0.0369 µM (active). Moreover, the GI50 with SW-620 was 0.279 µM (active); in the test with SK-MEL-28, 0.396 µM (active); in the test with SF-539, 0.0428 µM (active); with LOX IMVI, 0.0186 µM (active); with NCI-H460, 0.0136 µM (active); in the test on SF-295, 0.0745 µM (active). For the same compound, the GI50 in the test with MOLT-4 is 0.527 µM (active); with SK-MEL-5, 0.0259 µM (active); in the test with U-251, 0.158 µM (active); with A498, 5.07 µM (inactive); in the test on UACC-257, 0.0532 µM (active); in the test on HOP-62, 0.15 µM (active). In addition, the GI50 with SNB-75 was 0.0173 µM (active); with NCI-H23, 0.014 µM (active).

These data come from ChEMBL document CHEMBL1201862, “PubChem BioAssay data set” (2004).
